Values of other authors, collected in US12678540B2, “Chimeric peptide-modified SIS membrane, preparation method therefor and application thereof” (Beijing Biosis Healing Biological Technology Co., Ltd., priority 2021, dated 2026).

System: fibroblasts, epithelial cells and endothelial cells

Hst1: member of the histatins (HSTs); sequence SHREFPFYGDYGS contains minimal elements to promote cell migration
migration or adhesion of fibroblasts, epithelial cells and endothelial cells: promote the migration or adhesion
